Laboratory results from article PMC11613437, “Prioritization of Eleven-Nineteen-Leukemia Inhibitors as Orally Available Drug Candidates for Acute Myeloid Leukemia” (Journal of Medicinal Chemistry, 2024).
Where two headings read alike, the source gives them in different places.

How the values were obtained:
[1] = biological target: T1, NLuc-ENL YEATS fusion protein (Homo sapiens, UniProt Q03111); experiment: NanoBRET apparent tracer affinity; format: cell-based; details: HEK293T cells
T1 construct: DNA encoding the ENL YEATS domain (aa 1–148) was cloned into an NLuc containing plasmid; expressed in transfected cells
T1 sequence (Q03111 1-148): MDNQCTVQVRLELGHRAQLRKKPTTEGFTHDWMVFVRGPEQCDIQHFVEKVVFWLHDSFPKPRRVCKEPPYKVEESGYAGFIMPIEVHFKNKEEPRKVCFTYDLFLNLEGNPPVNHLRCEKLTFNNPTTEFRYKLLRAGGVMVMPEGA
Description: (§1) Approximately 1.8 × 10^4 HEK293T cells (100 μL) stably expressing NLuc-ENL YEATS were seeded into a white nonbinding 96-well assay plate and incubated overnight at 37 °C in a humidified 5% CO2 atmosphere. After removal of the medium, the cells were added with a tracer (with or without excess of unlabeled compound) in the Opti-MEM with 0.1% DMSO. After incubation at 37 °C for 2 h the assay plate was equilibrated at room temperature for 15 min. For BRET detection, the NanoGlo Substrate and the extracellular NanoLuc inhibitor (Promega, N2160) were diluted with Opti-MEM as described in protocol to afford detection solution. 50 μL of the detection solution was added per well and the plate was incubated for 3 min at room temperature. The donor emission was measured at 450 nm and the acceptor emission at 610 nm using a BioTek SYNERGY neo2 multimode reader. The BRET ratio was calculated according to the following formula: BRET ratio = [(acceptorsample/donorsample) – (acceptorno-tracer control/donorno-tracer control)] × 1000.

ENL YEATS = biological target: T2, ENL YEATS (Homo sapiens, UniProt Q03111); experiment: AlphaScreen assay with biotinylated ENL-S1 peptide; details: inhibition of ENL YEATS binding to ENL-S1 peptide; mean ± SD, n = 3; read-out: Alpha IC50 (nM) for ENL YEATS
T2 construct: final concentrations of 100 nM His-ENL YEATS, 100 nM Biotin-ENL-S1
T2 sequence (Q03111 1-138 limits assumed): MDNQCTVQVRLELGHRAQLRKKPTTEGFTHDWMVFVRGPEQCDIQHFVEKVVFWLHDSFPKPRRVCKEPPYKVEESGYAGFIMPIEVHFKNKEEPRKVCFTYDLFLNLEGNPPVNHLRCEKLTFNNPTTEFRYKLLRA
Description: The AlphaScreen assay was carried out in 384-well plates. Manual assay setup was performed in a 40 μL reaction buffer (50 mM HEPES pH 7.4, 100 mM NaCl, 0.1% bovine serum albumin, and 0.05% CHAPS) with final concentrations of 100 nM His-ENL YEATS, 100 nM Biotin-ENL-S1, and 20 μg/mL of AlphaScreen donor and acceptor beads. The protein, peptide, and compounds were mixed and incubated for 1 h at room temperature and then incubated for 30 min in dark after adding the α beads. AlphaScreen-signals were detected by a multimode microplate reader (BioTeK Synergy Neo2) equipped with an Alpha-laser (PerkinElmer).

[2] = In vitro metabolic stability assay in HLM; format: in vitro ADME, human
Description: At 0, 5, 15, 30, 45, and 60 min, 200 μL acetonitrile (with the internal standard diclofenac as 10 μg/mL) was added to terminate the reaction, the remaining compound was analyzed by HPLC-MS/MS.

NLuc-ENL YEATS = biological target: T3, NLuc-ENL YEATS (Homo sapiens, UniProt Q03111); experiment: ENL-NanoBRET inhibitor competitive assay; format: cell-based; details: HEK293T cells stably expressing NLuc-ENL YEATS, 1 μM Tracer 2, 2 h; mean ± SD, n = 3
T3 construct: DNA encoding the ENL YEATS domain (aa 1–148) was cloned into an NLuc containing plasmid; expressed in transfected cells
T3 sequence (Q03111 1-148): T1 sequence (Q03111 1-148)
Description: as §1
Sample procedures were followed for cell seeding as described in the previously described tracer affinity assay. After removal of the medium, the cells were added with a tracer in the medium (1.1 μM, 100 μL) and varied concentrations of a test compound in 0.1% DMSO (10 μL). The plate was thoroughly mixed on an orbital shaker for 15 s at 900 rpm. Then the cells were incubated at 37 °C, 5% CO2 for 2 h for BRET ratio detection as described previously.

MOLM-13 cells = experiment: Cell toxicity assay (CCK-8), MOLM-13; format: cell-based; details: 8 day treatment, n = 3; read-out: CC50 MOLM-13 (Cellular IC50, 8-days incubation)
Description: (§2) Approximately 1 × 10^4 JURKAT, MOLM-13, MV4-11 and HEK293T cells in RPMI 1640 (no phenol red) (100 μL) were added to a 96-well plate and treated with DMSO or a compound at indicated concentrations for 72 h or 8 days. Cell viability was measured using the CCK-8 kit (Abcam, ab228554) according to the manufacturer’s instructions.

[3] = Cell toxicity assay (CCK-8), MOLM-13; format: cell-based; details: human, MOLM-13 cells, 8 day treatment, n = 3; read-out: CC50 MOLM-13 (Cellular IC50, 8-days incubation)
Description: as §2

[4] = Cell toxicity assay (CCK-8), HEK293T; format: cell-based; details: human, HEK293T cells; 72 h (3-days) treatment, n = 3; read-out: CC50 HEK293T (Cellular IC50, 3-days incubation)
Description: as §2

[5] = In vitro stability assay in human plasma; format: in vitro ADME; details: 37 °C
Description: The in vitro stability analysis of a test compound was initiated by the addition of the test compound to 90 μL of prewarmed (37 °C) human plasma with a final concentration of 5 μM. All assays were performed in a plate shaker at 37 °C and conducted in triplicate. At 0, 5, 15, 30, 60, and 120 min, 400 μL acetonitrile (with the internal standard diclofenac as 10 μg/mL) was added to deproteinize the plasma and terminate the reaction, the remaining compound was then analyzed by HPLC-MS/MS.

ENL YEATS domain [6] = biological target: T4, ENL YEATS domain (Homo sapiens, UniProt Q03111); experiment: Biolayer interferometry (BLI); format: binding; details: biotinylated ENL YEATS on SSA biosensors, 1:1 model
T4 construct: Biotinylated-ENL YEATS was immobilized onto SSA biosensors; biotin (biotinylated)
T4 sequence (Q03111 1-138 limits assumed): T2 sequence (Q03111 1-138 limits assumed)
Description: Superstreptavidin biosensors were first incubated in an assay buffer (20 mM Tris, pH 7.8, 300 mM NaCl, 0.05% Tween 20, 0.1% DMSO) for 15 min. Sensors were coated with 40–60 μg/mL of biotinylated ENL for 15 min at room temperature. Inhibitors were serially diluted across a 96-well plate in a volume of 200 μL. Association of samples to either ENL- or uncoated reference sensors was measured over 300 s and dissociation over 300 s with baseline measurements (buffer only) for 300 s. All assays were run with continuous 1000 rpm shaking. Data were analyzed using the OctetRED data analysis software with reference subtraction in which reference uncoated sensors and reference samples were subtracted. Then, global kinetic fit was performed for all sonogram curves with a 1:1 model to get KD values.

MV4-11 cells = experiment: Cell toxicity assay (CCK-8), MV4-11; format: cell-based; details: 8 day treatment, n = 3; read-out: CC50 MV4-11 (Cellular IC50, 8-days incubation)
Description: as §2

[7] = Cell toxicity assay (CCK-8), MV4-11; format: cell-based; details: human, MV4-11 cells, 8 day treatment, n = 3; read-out: CC50 MV4-11 (Cellular IC50, 8-days incubation)
Description: as §2

[8] = Log D at pH 7.4 (chromatographic procedure); format: physicochemical; details: n-octanol / aqueous buffer pH 7.4, pH 7.4
Description: Log D at 7.4, which is a partition coefficient between n-octanol and aqueous buffer pH 7.4 of the compounds was measured on the chromatographic procedure whose condition was developed based on a published method.[35]

[9] = Cell toxicity assay (CCK-8), Jurkat; format: cell-based; details: human, Jurkat cells; 8 day treatment, n = 3; read-out: CC50 Jurkat (Cellular IC50, 8-days incubation)
Description: as §2

ENL YEATS domain [10] = biological target: T4, ENL YEATS domain; details: cited from earlier work

## O=C(CCC1=[N+]2C(=Cc3ccc(-c4ccc[nH]4)n3[B-]2(F)F)C=C1)NCCCCSc1ccc(CNC(=O)c2ccc3nncn3c2)cc1 [Tracer 1, N-(4-((4-(3-(5,5-Difluoro-7-(1H-pyrrol-2-yl)-5H-4l4,5l4-dipyrrolo[1,2-c:2′,1′-f][1,3,2]diazaborinin-3-yl)propanamido)butyl)thio)benzyl)-[1,2,4]triazolo[4,3-a]pyridine-6-carboxamide]
[1]; Figure S5a
  affinity profile of tracer for NLuc-ENL YEATS fusion protein: limited affinity profile

## O=C(CCC1=[N+]2C(=Cc3ccc(-c4ccc[nH]4)n3[B-]2(F)F)C=C1)NCCCC(=O)Nc1cccc(-c2cn3cc(C(=O)NC4CCC4)ccc3n2)c1 [Tracer 2, N-Cyclobutyl-2-(3-(4-(3-(5,5-difluoro-7-(1H-pyrrol-2-yl)-5H-4l4,5l4-dipyrrolo[1,2-c:2′,1′-f][1,3,2]diazaborinin-3yl)propanamido)butanamido)phenyl)imidazo[1,2-a]pyridine-6-carboxamide]
[1]; nonspecific signal removed with 80 μM unlabeled compound 20
  EC50: 1460 nM

## C[C@H]1CCCN1Cc1cc2cnc(NC(=O)c3ccc4nncn4c3)cc2[nH]1 [YR-D-120, (S)-N-(2-((2-Methylpyrrolidin-1-yl)methyl)-1H-pyrrolo[3,2-c]pyridin-6-yl)-[1,2,4]triazolo [4,3-a]pyridine-6-carboxamide]
ENL YEATS
  IC50: 183 ± 25 nM
[2]; human, human liver microsomes, pH 7.4, HLM 0.5 mg/mL, NADPH 1 mM, mean ± SD, n = 3, read-out: Liver Microsome CLint, pred
  CLint scaled at 1 h: 4.76 mL/min/kg
[2]; human, human liver microsomes, pH 7.4, HLM 0.5 mg/mL, NADPH 1 mM, mean ± SD, n = 3, read-out: Liver Microsome t1/2
  half-life at 1 h: 369 ± 34.9 min
[2]; in the presence of NADPH, 60 min
  parent compound remaining after 60 min incubation in HLM: over 90%
NLuc-ENL YEATS
  IC50: 2020 nM
MOLM-13 cells
  IC50: 3.61 ± 0.49 µM
[3]
  IC50 at 8 days: < 4 µM
[4]
  IC50 at 72 h: > 64 µM
[5]
  degradation after 2 h incubation in human plasma: approximately 15%
[5]; 5 μM, mean ± SD, n = 3
  Plasma % of parent compound remaining (after 2h incubation): 83.10 ± 3.49%
ENL YEATS domain [6]
  Kd: 645 nM
MV4-11 cells
  IC50: 3.28 ± 0.65 µM
[7]
  IC50 at 8 days: < 4 µM
[8]
  chromatographic logD: 0.08
[9]
  IC50 at 8 days: > 64 µM

## H3K27cr peptide: commonly used biotinylated H3K27cr peptide for the AlphaScreen assay
ENL YEATS domain [10]
  Kd: 34 µM
